Experimental data as given in patent US9497970B2, “Pesticide compounds” (priority 2013, dated 2016).

Assays:
Format in all cases: in vivo
[1] = system: Diamond Back Moth (Plutella xylostella); test: B.1 Diamond Back Moth (Plutella xylostella), cabbage leaf dip; conditions: foliar, 500 ppm, 3rd instar larvae on dipped cabbage leaves, 72 hours after treatment, in comparison with untreated controls, read-out: mortality
Method: B.1 Diamond Back Moth (Plutella xylostella)
The active compound was dissolved at the desired concentration in a mixture of 1:1 (vol:vol) distilled water:aceteone. Surfactant (Kinetic HV) was added at a rate of 0.01% (vol/vol). The test solution was prepared at the day of use.
Leaves of cabbage were dipped in test solution and air-dried. Treated leaves were placed in petri dishes lined with moist filter paper and inoculated with ten 3rd instar larvae. Mortality was recorded 72 hours after treatment. Feeding damages were also recorded using a scale of 0-100%.

[2] = system: Orchid thrips (dichromothrips corbetti); test: B.12 Orchid thrips (dichromothrips corbetti), floral-immersion technique; conditions: adult thrips on dipped orchid petals, 72 hours after treatment, in comparison with untreated controls
Method: B.12 Orchid thrips (dichromothrips corbetti)
Dichromothrips corbetti adults used for bioassay were obtained from a colony maintained continuously under laboratory conditions. For testing purposes, the test compound is diluted in a 1:1 mixture of acetone:water (vol:vol), plus Kinetic HV at a rate of 0.01% v/v.
Thrips potency of each compound was evaluated by using a floral-immersion technique. All petals of individual, intact orchid flowers were dipped into treatment solution and allowed to dry in Petri dishes. Treated petals were placed into individual resealable plastic along with about 20 adult thrips. All test arenas were held under continuous light and a temperature of about 28° C. for duration of the assay. After 3 days, the numbers of live thrips were counted on each petal. The percent mortality was recorded 72 hours after treatment.

[3] = system: Boll Weevil (Anthonomus grandis); test: B.3 Boll Weevil (Anthonomus grandis), microtiter plate insect diet; conditions: 120 h, 800 ppm, sprayed onto insect diet, 5 days, in comparison with untreated controls, read-out: mortality (egg and larval)
Method: B.3 Boll Weevil (Anthonomus grandis)
For evaluating control of boll weevil (Anthonomus grandis) the test unit consisted of 96-well-microtiter plates containing an insect diet and 5-10 A. grandis eggs.
(§1) The compounds were formulated using a solution containing 75% v/v water and 25% v/v DMSO. Different concentrations of formulated compounds were sprayed onto the insect diet at 5 μl, using a custom built micro atomizer, at two replications.
After application, microtiter plates were incubated at about 25±1° C. and about 75±5% relative humidity for 5 days. Egg and larval mortality was then visually assessed.

[4] = system: Mediterranean Fruitfly (Ceratitis capitata); test: B.6 Mediterranean Fruitfly (Ceratitis capitata), microtiter plate insect diet; conditions: 120 h, 800 ppm, sprayed onto insect diet, 5 days, in comparison with untreated controls, read-out: mortality (egg and larval)
Method: B.6 Mediterranean Fruitfly (Ceratitis capitata)
For evaluating control of Mediterranean fruitfly (Ceratitis capitata) the test unit consisted of microtiter plates containing an insect diet and 50-80 C. capitata eggs.
as §1
(§2) After application, microtiter plates were incubated at about 28±1° C. and about 80±5% relative humidity for 5 days. Egg and larval mortality was then visually assessed.

[5] = system: Tobacco Budworm (Heliothis virescens); test: B.7 Tobacco Budworm (Heliothis virescens) I, microtiter plate insect diet; conditions: 120 h, 800 ppm, sprayed onto insect diet, 5 days, in comparison with untreated controls, read-out: mortality (egg and larval)
Method: B.7 Tobacco Budworm (Heliothis virescens) I
as §1, with “For evaluating control of tobacco budworm (Heliothis virescens) the test unit consisted of 96-well-microtiter plates containing an insect diet and 15-25 H. virescens eggs. The” for “The”, “at 10” for “at 5”
as §2

CCc1cccc(C)c1NC(=S)N/N=C(\C)c1ccc2c(ccc3c2ncn3-c2ccc(OC(F)(F)F)cc2)c1 [C-82, 1-(2-ethyl-6-methyl-phenyl)-3-[(E)-1-[3-[4-(trifluoromethoxy)phenyl]benzo[e]benzimidazol-7-yl]ethylideneamino]thiourea]
≥ 75%: mortality at 500 ppm [1] | mortality at 500 ppm [2]

FC(F)(F)Oc1ccc(-n2cnc3c4ccc(/C=N/NC(=S)Nc5ccccc5Cl)cc4ccc32)cc1 [C-30, 3-(2-chlorophenyl)-1-[[3-[4-(trifluoromethoxy)phenyl]-8H-benzo[e]benzimidazol-7-ylidene]methylimino] isothiourea]
≥ 75%: mortality at 500 ppm [1] | mortality at 500 ppm [2]

Cc1cc(Cl)ccc1NC(=S)N/N=C/c1ccc2c(ccc3c2ncn3-c2ccc(OC(F)(F)F)cc2)c1 [C-38, 1-(4-chloro-2-methyl-phenyl)-3-[(E)-[3-[4-(trifluoromethoxy)phenyl]benzo[e]benzimidazol-7-yl]methyleneamino] thiourea]
≥ 75%: mortality at 500 ppm [1] | mortality at 800 ppm [3] | mortality at 800 ppm [4] | mortality at 800 ppm [5] | mortality at 500 ppm [2]

Cc1ccc(Cl)cc1NC(=S)N/N=C/c1ccc2c(ccc3c2ncn3-c2ccc(OC(F)(F)F)cc2)c1 [C-21, 1-(5-chloro-2-methyl-phenyl)-3-[(E)-[3-[4-(trifluoromethoxy)phenyl]benzo[e]benzimidazol-7-yl]methyleneamino] thiourea]
≥ 75%: mortality at 500 ppm [1] | mortality at 800 ppm [3] | mortality at 800 ppm [4] | mortality at 800 ppm [5] | mortality at 500 ppm [2]

Cn1nc2c(ccc3cc(/C=N/NC(=S)Nc4c(Cl)cccc4Cl)ccc32)c1-c1ccc(OC(F)(F)F)cc1 [C-99, 1-(2,6-dichlorophenyl)-3-[(E)-[2-methyl-3-[4-(trifluoromethoxy)phenyl]benzo[g]indazol-7-yl]methyleneamino]thiourea]
≥ 75%: mortality at 800 ppm [3] | mortality at 800 ppm [4] | mortality at 800 ppm [5] | mortality at 500 ppm [2]

FC(F)(F)Oc1ccc(-c2onc3c2CCc2cc(/C=N/NC(=S)Nc4c(Cl)cc(Cl)cc4Cl)ccc2-3)cc1 [C-9, 1-(2,4,6-trichlorophenyl)-3-[(E)-[3-[4-(trifluoromethoxy)phenyl]-4,5-dihydrobenzo[g][2,1]benzoxazol-7-yl]methyleneamino]thiourea]
≥ 75%: mortality at 800 ppm [4] | mortality at 500 ppm [2]

CCc1ccccc1NC(=S)N/N=C/c1ccc2c(ccc3c2cnn3-c2ccc(OC(F)(F)F)cc2)c1 [C-50, 1-(2-ethylphenyl)-3-[[3-[4-(trifluoromethoxy)phenyl]-5H-benzo[e]indazol-7-ylidene]methylimino]thiourea]
≥ 75%: mortality at 500 ppm [1] | mortality at 800 ppm [3] | mortality at 800 ppm [4] | mortality at 800 ppm [5]

Cc1cccc(Cl)c1NC(=S)N/N=C/c1ccc2c(ccc3c(-c4ccc(OC(F)(F)F)cc4)n(C)nc32)c1 [C-91, 1-(2-chloro-6-methyl-phenyl)-3-[(E)-[2-methyl-3-[4-(trifluoromethoxy)phenyl]benzo[g]indazol-7-yl]methyleneamino] thiourea]
≥ 75%: mortality at 500 ppm [1] | mortality at 800 ppm [3] | mortality at 800 ppm [4] | mortality at 800 ppm [5]

FC(F)(F)Oc1ccc(-n2cnc3c4ccc(/C=N/NC(=S)Nc5c(Cl)cc(Cl)cc5Cl)cc4ccc32)cc1 [C-3, 1-(2,4,6-trichlorophenyl)-3-[(E)-[3-[4-(trifluoromethoxy)phenyl]benzo[e]benzimidazol-7-yl]methyleneamino] thiourea]
≥ 75%: mortality at 500 ppm [1] | mortality at 800 ppm [3] | mortality at 800 ppm [4] | mortality at 800 ppm [5]

Cc1cccc(C)c1NC(=S)N/N=C/c1ccc2c(ccc3c2cnn3-c2ccc(OC(F)(F)F)cc2)c1 [C-46, (E)-N-(2,6-dimethylphenyl)-2-((3-(4-(trifluoromethoxy)phenyl)-3H-benzo[e]indazol-7-yl)methylene)hydrazinecarbothioamide]
≥ 75%: mortality at 500 ppm [1] | mortality at 800 ppm [3] | mortality at 800 ppm [4] | mortality at 800 ppm [5]
